The results in this text go back to patent publication US20050137220A1 (Pharmacia Corporation, priority 2003, published 2005).

Where a name gives a salt, the structure may show the parent alone. Read-outs that look alike come from different tables or passages of the source.

For one assay, the target named is MK-2 (Homo sapiens, UniProt P49137). The experiment in a line: Determination of MK-2 IC50 (phosphorylation of HSP-peptide, anion exchange resin capture assay). The note with it: additional values are replicate IC50 experiments; mixture of stereoisomers implied unless otherwise noted; read-out: MK-2 Avg. IC50. The format is biochemical.
The subject of another assay is U937 cells. The experiment in a line: U937 Cell TNFα Release Assay. The assay is classed as cell-based, human. The note with it: mixture of stereoisomers implied unless otherwise noted.
Where [1] appears, read: Homo sapiens, U-937, 4 h, LPS-stimulated differentiated U937 cells, TNFα by ELISA, read-out: TNF Release Assay Avg. IC50.
[2] abbreviates: Homo sapiens, U-937, 4 h, read-out: TNF Release Assay Avg. IC50, LPS-stimulated differentiated U937 cells, TNFα by ELISA.
The mark [3] stands for this setting: Homo sapiens, U-937, LPS-stimulated differentiated U937 cells, TNFα by ELISA, read-out: TNF Release Assay Avg. IC50.
[4] abbreviates: Homo sapiens, U-937, read-out: TNF Release Assay Avg. IC50, LPS-stimulated differentiated U937 cells, TNFα by ELISA.

MK-2, sequence (P49137 whole entry, species assumed): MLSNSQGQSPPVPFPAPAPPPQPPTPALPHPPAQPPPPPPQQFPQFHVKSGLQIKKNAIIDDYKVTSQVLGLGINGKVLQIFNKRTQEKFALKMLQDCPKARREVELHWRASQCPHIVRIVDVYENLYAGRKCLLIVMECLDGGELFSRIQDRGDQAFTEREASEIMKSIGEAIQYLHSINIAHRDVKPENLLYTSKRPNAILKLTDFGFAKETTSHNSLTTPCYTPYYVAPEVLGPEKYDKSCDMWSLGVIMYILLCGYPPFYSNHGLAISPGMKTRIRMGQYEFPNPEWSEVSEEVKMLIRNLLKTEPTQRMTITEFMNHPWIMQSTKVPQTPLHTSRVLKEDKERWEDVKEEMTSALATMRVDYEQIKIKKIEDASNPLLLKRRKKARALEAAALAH

Consider `COC(=O)c1cccc2c3c([nH]c12)CCNC3=O` [Example 29, methyl 1-oxo-2,3,4,5-tetrahydro-1H-pyrido[4,3-b]indole-6-carboxylate], for which the IC50 was determined as 3.52 µM on MK-2 and 42.4 µM with U937 cells (setting [1]).

Regarding `COC(=O)C1NCCc2c1n(C)c1ccc(OC)cc21` (stereo not drawn) [Example 209, methyl 6-methoxy-9-methyl-2,3,4,9-tetrahydro-1H-beta-carboline-1-carboxylate trifluoroacetate], the IC50 at MK-2 was greater than 200 µM; in the assay on U937 cells (setting [1]), 88.9 µM.

On to `COC(=O)C1NCCc2c1[nH]c1ccc(OCc3ccccc3)cc21` (stereo not drawn) [Example 175, methyl 6-(benzyloxy)-2,3,4,9-tetrahydro-1H-beta-carboline-1-carboxylate hydrochloride], for which the concentration for half-maximal inhibition (IC50) at MK-2 is greater than 200 µM; in the assay on U937 cells (setting [2]), 26.5 µM.

Consider `CCOC(=O)COc1ccc2[nH]c3c(c2c1)CCNC3C(=O)O` (stereo not drawn) [Example 53, 6-(2-ethoxy-2-oxoethoxy)-2,3,4,9-tetrahydro-1H-beta-carboline-1-carboxylic acid trifluoroacetate hydrate], for which the half-inhibitory concentration (IC50) at MK-2 was 8 µM; in the assay with U937 cells (setting [1]) it was greater than 100 µM.

Take `COc1ccc2c3c([nH]c2c1)C(C(=O)O)NCC3` (stereo not drawn) [Example 34, 7-methoxy-2,3,4,9-tetrahydro-1H-beta-carboline-1-carboxylic acid]: the IC50 was 4.52 µM at MK-2 and greater than 100 µM in the assay on U937 cells (setting [1]).

For `CC(=O)Oc1ccc2[nH]c3c(c2c1)CCNC3C(=O)O` (stereo not drawn) [Example 156, 6-(acetyloxy)-2,3,4,9-tetrahydro-1H-beta-carboline-1-carboxylic acid trifluoroacetate], the half-inhibitory concentration (IC50) on MK-2 turned out to be 167 µM; with U937 cells (setting [1]), 100 µM; in the assay on U937 cells (setting [3]), 100 µM.

`COc1ccc2[nH]c3c(c2c1)CCNC3=O` [Example 69, 6-methoxy-2,3,4,9-tetrahydro-1H-beta-carbolin-1-one]: the results for the IC50 on MK-2 and in the assay with U937 cells (setting [3]) were 15 µM and 45.7 µM, respectively.

As for `CCCCOc1ccc2[nH]c3c(c2c1)CCNC3C(=O)O` (stereo not drawn) [Example 60, 6-butoxy-2,3,4,9-tetrahydro-1H-beta-carboline-1-carboxylic acid], the results for the concentration for half-maximal inhibition (IC50) at MK-2 and in the assay on U937 cells (setting [1]) were 10.1 µM and greater than 100 µM, respectively.

Regarding `COC(=O)C1c2[nH]c3ccc(OCc4ccccc4)cc3c2CCN1C` (stereo not drawn) [Example 176, methyl 6-(benzyloxy)-2-methyl-2,3,4,9-tetrahydro-1H-beta-carboline-1-carboxylate], the IC50 on MK-2 is greater than 200 µM; in the assay on U937 cells (setting [2]) it was 36.4 µM.

With `O=C(O)C1NCCc2c1[nH]c1ccc(OCc3cccc(Cl)c3)cc21` (stereo not drawn) [Example 80, 6-[(3-chlorobenzyl)oxy]-2,3,4,9-tetrahydro-1H-beta-carboline-1-carboxylic acid], the results for the concentration for half-maximal inhibition (IC50) at MK-2 and with U937 cells (setting [1]) were 17.9 µM and 17.8 µM, respectively.

Turning to `O=C(O)C1NCCc2c1[nH]c1ccc(OCCCCl)cc21` (stereo not drawn) [Example 76, 6-(3-chloropropoxy)-2,3,4,9-tetrahydro-1H-beta-carboline-1-carboxylic acid hydrochloride], the IC50 at MK-2 was 16.7 µM; in the assay with U937 cells (setting [1]), greater than 100 µM.

Consider `COc1ccc2[nH]c3c(c2c1)CCCNC3=O` [Example 30, 7-methoxy-3,4,5,10-tetrahydroazepino[3,4-b]indol-1(2H)-one hydrochloride], for which the IC50 at MK-2 was 3.6 µM; in the assay on U937 cells (setting [1]) it was 2.66 µM.

Regarding `COC(=O)C1NCC(C)c2c1[nH]c1ccc(OC)cc21` (stereo not drawn) [Example 189, methyl 6-methoxy-4-methyl-2,3,4,9-tetrahydro-1H-beta-carboline-1-carboxylate], the IC50 is greater than 200 µM on MK-2 and 53.2 µM with U937 cells (setting [1]).

Turning to `COc1ccc2[nH]c3c(c2c1)CCN(C)C3C(N)=O` (stereo not drawn) [Example 170, 6-methoxy-2-methyl-2,3,4,9-tetrahydro-1H-beta-carboline-1-carboxamide], the half-maximal inhibitory concentration (IC50) on MK-2 is greater than 200 µM; in the assay with U937 cells (setting [2]), greater than 100 µM.

With `COc1ccc2[nH]c3c(c2c1)CC(CCCNCc1ccccc1)NC3=O` (stereo not drawn) [Example 62, 3-[3-(benzylamino)propyl]-6-methoxy-2,3,4,9-tetrahydro-1H-beta-carbolin-1-one trifluoroacetate], the IC50 at MK-2 stood at 10.5 µM; in the assay with U937 cells (setting [3]), 24.9 µM.

Turning to `O=C(O)C1NCCc2c1[nH]c1ccc(Br)cc21` (stereo not drawn) [Example 89, 6-bromo-2,3,4,9-tetrahydro-1H-beta-carboline-1-carboxylic acid compound with ethanol(1:1) hydrochloride], the figures for the half-maximal inhibitory concentration (IC50) at MK-2 and in the assay on U937 cells (setting [2]) were 28.2 µM and greater than 100 µM, respectively.

As for `O/N=C1\CCCc2c1[nH]c1ccc(I)cc21` [Example 77, 6-iodo-2,3,4,9-tetrahydro-1H-carbazol-1-one oxime], the values for the IC50 at MK-2 and with U937 cells (setting [3]) were 17 µM and 23.2 µM, respectively.

Turning to `COc1ccc2[nH]c3c(c2c1)CCC(C)/C3=N/O` (stereo not shown) [Example 78, 6-methoxy-2-methyl-2,3,4,9-tetrahydro-1H-carbazol-1-one oxime], the values for the IC50 on MK-2 and in the assay on U937 cells (setting [3]) were 17 µM and 1.59 µM, respectively.

Regarding `COc1ccc2[nH]c3c(c2c1)CCC/C3=N\O` [Example 19, (1E)-6-methoxy-2,3,4,9-tetrahydro-1H-carbazol-1-one oxime], the 50% inhibitory concentration (IC50) amounted to 2.1 µM on MK-2 and 1.89 µM with U937 cells (setting [3]).

Turning to `O=C(O)C1NCCc2c1[nH]c1ccc(O)cc21` (stereo not drawn) [Example 33, 6-hydroxy-2,3,4,9-tetrahydro-1H-beta-carboline-1-carboxylic acid hydrochloride], in the assay on U937 cells (setting [2]), the IC50 was greater than 100 µM.

For the molecule `COC(=O)C1c2[nH]c3ccc(OC)cc3c2C2CCN1C2` (stereo not shown) [Example 58, methyl 7-methoxy-3,4,5,10-tetrahydro-1H-2,5-methanoazepino[3,4-b]indole-1-carboxylate trifluoroacetate], the IC50 with U937 cells (setting [3]) amounted to 16.3 µM.

As to `COc1ccc2[nH]c3c(c2c1)C1CCN(C1)C3C(=O)OC(C)C` (stereo not shown) [Example 59, isopropyl 7-methoxy-3,4,5,10-tetrahydro-1H-2,5-methanoazepino[3,4-b]indole-1-carboxylate hydrochloride], the IC50 in the assay on U937 cells (setting [4]) was greater than 100 µM.

With `CSc1ccc2[nH]c3c(c2c1)C1CCN(C1)C3C(=O)O` (stereo not shown) [Example 50], the half-inhibitory concentration (IC50) with U937 cells (setting [1]) is 15.3 µM.

On to `COc1ccc2[nH]c3c(c2c1)C1CCN(C1)C3C(=O)OCC1CCCCC1` (stereo not shown) [Example 99, cyclohexylmethyl 7-methoxy-3,4,5,10-tetrahydro-1H-2,5-methanoazepino[3,4-b]indinole-1-carboxylate hydrochloride], for which, in the assay on U937 cells (setting [4]), the 50% inhibitory concentration (IC50) came out at 9.83 µM.

Consider `COc1ccc2[nH]c3c(c2c1)C(C)CNC3C(=O)O` (stereo not drawn) [Example 22, 6-methoxy-4-methyl-2,3,4,9-tetrahydro-1H-beta-carboline-1-carboxylic acid], for which, in the assay on U937 cells (setting [2]), the IC50 was determined as 92.2 µM.

As to `COC(=O)C1c2[nH]c3ccc(O)cc3c2CCN1C` (stereo not drawn) [Example 150, methyl 6-hydroxy-2-methyl-2,3,4,9-tetrahydro-1H-beta-carboline-1-carboxylate], in the assay with U937 cells (read-out: TNF Release Assay Avg. IC50, LPS-stimulated differentiated U937 cells, TNFα by ELISA), the IC50 is 0.523 µM.

Consider `COc1ccc2[nH]c3c(c2c1)C1CCN(C1)C3C(=O)OC1CCCCC1` (stereo not shown) [Example 105, hydrochloride], for which the IC50 in the assay with U937 cells (setting [4]) was greater than 100 µM.

As to `O=C(O)C1NCCc2c1[nH]c1ccc(F)cc21` (stereo not drawn) [Example 94, 6-fluoro-2,3,4,9-tetrahydro-1H-beta-carboline-1-carboxylic acid trifluoroacetate], the half-inhibitory concentration (IC50) in the assay with U937 cells (setting [2]) was greater than 100 µM.

For the molecule `COc1ccc2[nH]c3c(c2c1)C1CCN(C1)C3C(=O)OCC(O)CO` (stereo not shown) [Example 20, 2,3-dihydroxypropyl 7-methoxy-3,4,5,10-tetrahydro-1H-2,5-methanoazepino[3,4-b]indole-1-carboxylate hydrochloride], the half-maximal inhibitory concentration (IC50) in the assay on U937 cells (setting [4]) was greater than 100 µM.
